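Growth conditions: 96-well plates. Treatment: test compound, 48 hours, 5 concentrations. Analysis: linear interpolation between bracketing concentrations; unreached endpoints set to highest concentration. The concentration for 50% growth inhibition is given as GI50.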 Calls of active or inactive are those of the source. No stated cut-off is given here; in the data, active = GI50 up to about 1.1 µM and inactive = higher.
What was measured:
Assay in all cases: inhibition of tumour cell growth, NCI panel, 48 h
[1] = test system: SR
[2] = test system: HCC 2998
[3] = test system: RPMI-8226
[4] = test system: RXF 393
[5] = test system: HCT-116
[6] = test system: HOP-62
[7] = test system: TK-10
[8] = test system: U-251
[9] = test system: SK-MEL-5
[10] = test system: SK-MEL-2
[11] = test system: NCI-H460
[12] = test system: MOLT-4
[13] = test system: M19-MEL
[14] = test system: CAKI-1
[15] = test system: SW-620
[16] = test system: HL-60
[17] = test system: NCI-H226
[18] = test system: NCI-H522

Measured: GI50

CSc1ccc(Cc2cc(C(C)(C)C)cc(C(C)(C)C)c2O)cc1
inactive: [1] 8.75 µM | [2] 18.5 µM | [3] 4.45 µM | [4] 13.3 µM | [5] 10.8 µM | [6] 20.6 µM | [7] 12.9 µM | [8] 14.8 µM | [9] 15.6 µM | [10] 3.88 µM | [11] 14 µM | [12] 8.07 µM | [13] 16.8 µM | [14] 16.7 µM | [15] 16.1 µM | [16] 8.67 µM

CC1CC(c2ccc(Cl)cc2)=Nc2ccccc2S1 (stereo not given)
inactive: [1] > 100 µM | [2] > 100 µM | [3] > 100 µM | [17] > 100 µM | [4] > 100 µM | [5] > 100 µM | [6] > 100 µM | [7] > 100 µM | [8] > 100 µM | [10] > 100 µM | [18] > 100 µM | [11] > 100 µM | [12] > 100 µM | [13] > 100 µM | [15] > 100 µM | [16] > 100 µM

O=C(O)CCc1nn2c(nc1=O)sc1ccc3ccccc3c12
inactive: [1] > 100 µM | [2] > 100 µM | [3] > 100 µM | [17] > 100 µM | [4] > 100 µM | [5] > 100 µM | [6] > 100 µM | [7] > 100 µM | [8] > 100 µM | [9] > 100 µM | [11] > 100 µM | [12] > 100 µM | [13] > 100 µM | [14] > 100 µM | [15] > 100 µM | [16] > 100 µM

C/C(=N\NC(=S)NC(CCC(=O)O)C(=O)O)c1cnccn1 (stereo not given)
inactive: [1] > 100 µM | [2] > 100 µM | [3] > 100 µM | [17] > 100 µM | [4] > 100 µM | [5] > 100 µM | [6] > 100 µM | [7] > 100 µM | [8] > 100 µM | [9] > 100 µM | [10] > 100 µM | [18] > 100 µM | [11] > 100 µM | [12] > 100 µM | [13] > 100 µM | [15] > 100 µM | [16] > 100 µM

CCOC(=O)NC(=O)c1cn(C2OC(COC(=O)CCCCCCCCC(=O)OCC3OC(n4cc(C(=O)NC(=O)OCC)c(=O)[nH]c4=O)C(O)C3O)C(O)C2O)c(=O)[nH]c1=O (stereo not given)
inactive: [1] > 100 µM | [2] > 100 µM | [3] > 100 µM | [17] > 100 µM | [4] > 100 µM | [5] > 100 µM | [6] > 100 µM | [7] > 100 µM | [9] > 100 µM | [10] > 100 µM | [11] > 100 µM | [12] > 100 µM | [13] > 100 µM | [14] > 100 µM | [15] > 100 µM | [16] > 100 µM

COC1OC(OC)C2C(c3c(C)cc(C)cc3C)=NOC12 (stereo not given)
inactive: [1] > 100 µM | [2] > 100 µM | [3] > 100 µM | [17] > 100 µM | [4] > 100 µM | [5] > 100 µM | [6] 2.13 µM | [7] > 100 µM | [8] 20.3 µM | [9] > 100 µM | [10] > 100 µM | [18] > 100 µM | [11] > 100 µM | [12] > 100 µM | [13] > 100 µM | [14] > 100 µM | [15] > 100 µM | [16] > 100 µM

CCOC(=O)C1=C(OC(OCC)C(CC)[Se]c2ccccc2)CCC1 (stereo not given)
inactive: [1] 19.3 µM | [2] 15.2 µM | [3] 19.3 µM | [17] 18.3 µM | [4] 19.5 µM | [5] 20.4 µM | [6] 78.5 µM | [7] 82 µM | [8] 11.4 µM | [9] 12.6 µM | [10] 31.5 µM | [18] 15.6 µM | [11] 39.7 µM | [12] 20.1 µM | [13] 14.4 µM | [14] 44.2 µM | [16] 12.4 µM

CCC/C(=N/NC(=O)C(N)=O)C(CC)C(=O)CCC(=O)N(Cc1ccccc1)Cc1ccccc1 (stereo not given)
inactive: [1] > 100 µM | [2] > 100 µM | [3] > 100 µM | [17] > 100 µM | [4] > 100 µM | [5] > 100 µM | [6] > 100 µM | [7] > 100 µM | [8] > 100 µM | [9] > 100 µM | [10] > 100 µM | [18] > 100 µM | [11] > 100 µM | [12] > 100 µM | [13] > 100 µM | [14] > 100 µM | [15] > 100 µM | [16] > 100 µM

Cc1cccc2c(=O)cc(-c3ccccc3)[nH]c12
inactive: [1] 6.93 µM | [2] 4.39 µM | [3] 5.4 µM | [17] 20.2 µM | [4] 3.62 µM | [5] 5.06 µM | [6] 3.64 µM | [7] > 100 µM | [8] 21.9 µM | [9] 2.36 µM | [10] 4.6 µM | [11] 3.95 µM | [12] 4.54 µM | [13] 4.61 µM | [15] 2.6 µM | [16] 3.25 µM

Reference: ChEMBL document CHEMBL1201862, “PubChem BioAssay data set” (2004)
